How the values were obtained:
αVβ8 ectodomain = αVβ8 ectodomain (Homo sapiens, UniProt P06756+P26012); test: Fluorescence polarization; assay type: binding; conditions: ratio of FP KDs, αVβ8 vs αVβ6
integrin αVβ6 ectodomain [1] = target: integrin αVβ6 ectodomain (UniProt P06756); test: fluorescence polarisation
αVβ6 ectodomain = αVβ6 ectodomain (Homo sapiens, UniProt P06756+P18564); test: Fluorescence polarization; assay type: binding; conditions: FP competition
integrin αVβ8 ectodomain = integrin αVβ8 ectodomain (UniProt P06756 31-992; P26012 43-684); test: fluorescence polarisation
integrin αVβ6 ectodomain [2] = target: integrin αVβ6 ectodomain (UniProt P06756 31-992; P18564 22-709); test: fluorescence polarisation

In the case of Ac-YTSGDQKTIKSTR-NH2 [13-mer], the “Fold lower affinity of αVβ8 compared to αVβ6” value (αVβ8 ectodomain) is reported as 8,100 fold.

For “human proTGF-β2 C24S, N140R, D5G (shaved) (natural protein)”, the fold higher affinity than the TGF-β2 9-mer (integrin αVβ6 ectodomain [1]) was 170 fold.

For Ac-GTSTYTSGDQKTIKSTRKKNSGK-NH2 [23-mer], the “Fold higher affinity for αVβ6 than the TGF-β2 9-mer” value (αVβ6 ectodomain) was 20 fold and the “Fold lower affinity of αVβ8 compared to αVβ6” value (αVβ8 ectodomain) was 5,500 fold.

Molecule Ac-YTSGDQKTIKSTR-NH2 [TGF-β2 13-mer peptide Y259TSGDQKTIKSTR271] has a Kd (integrin αVβ8 ectodomain) of 11.4 mM.

In the case of Ac-YTSGDQATIKSTR-NH2 (peptide, UniProt P61812 259-271, looked up) [TGF-β2 13-mer peptide K265A], the “fold increase in affinity over the wild-type 13-mer” value (integrin αVβ6 ectodomain [2]) is reported as 6.3 fold.

From PMC10268255 (Proceedings of the National Academy of Sciences of the …, 2023)
